In patent US9726659B2, “CMPF as a biomarker for diabetes and associated methods” (The Governing Council of the University of Toronto, priority 2012, dated 2017):

Tests used:
MIN6 cells = experiment: Annexin V and propidium iodide staining for apoptosis and necrosis; format: cell-based, murine; conditions: 5 mM, 3 hrs
Description: A) MIN6 cells were treated for 4 hrs with 0 uM (EtOH vehicle control), 20 uM or 200 uM CMPF prior to being loaded with Annexin V and propidium iodide fluorescent dyes, and counterstained with Hoechst dye. […] B) Primary CD1 islets were dispersed and treated with vehicle control (0 CMPF, black), 20 uM CMPF (grey), or 200 uM CMPF (white) for 48 hours, then stained with Annexin V, Propidium Iodide and Hoechst dye. Quantification of double positive staining was assessed by an Arrayscan VTI HCS reader.
Next the mechanism underlying the observed impairment in GSIS following treatment with CMPF was investigated. To determine whether CMPF was inhibiting GSIS by inducing beta cell apoptosis, Annexin V and Propidium Iodide staining was performed in MIN6 cells treated with vehicle (EtOH), 20 uM or 200 uM CMPF for 4 hrs to look for apoptosis and necrosis respectively. […] MIN6 cells treated with 5 mM H2O2 for 3 hrs were used as a positive control (FIG. 4).

[1] = tested on: dispersed CD1 mouse islet cells; experiment: Immunofluorescent staining of FOXO1 and PDX1 localization; format: cell-based; conditions: treatment with NAC
Description: The cellular localization of FOXO1 and PDX1 were determined in dispersed CD1 mouse islet cells using immunofluorescence. The presence of the organic anion transporters (OATs) were determined in dispersed human islet cells also using immunofluorescence. Staining was performed as previously described (Diao et al., 2008). Images were acquired using a confocal microscope (Quorum Wave FX Spinning Disc; Perkin Elmer, Waltham M L, USA) and Volocity software (Perkin Elmer).
To determine the mechanism through which CMPF decreases insulin biosynthesis we examined its effect on these key regulators. Under normal conditions, AKT and GSK3β have reciprocal activities. Active pAKT phosphorylates and inactivates GSK3β, preventing phosphorylation of downstream targets (Humphrey et al., 2010). […] FOXO1 is normally sequestered in the cytosol due to phosphorylation by AKT (Kitamura et al., 2005). […] Altered activity of these transcription factors is further confirmed by decreased mRNA levels of key target genes including Inst, transcription factors Pdx1 and Mafa, proinsulin processing enzymes CpE, Pc1 and Pc2, and the glucose transporter Glut2 (Boucher et al., 2006; Kaneto et al. 2008) (FIG. 18a).

primary murine islets = experiment: Glucose- and KCl-stimulated insulin secretion in primary murine islets; format: cell-based; conditions: co-treatment with 500 μM NAC, 24 hr
Description: LG=2.8 mM glucose, HG=16.7 mM glucose, KCl=16.7 mM glucose+30 mM KCl. *p<0.05.
Since beta cell failure is a major underlying cause of both GDM and T2D, the effect of increased CMPF on beta cell function was investigated both in vitro and in vivo. Using physiological concentrations of CMPF (20 uM and 200 uM, as observed in our NGT-pregnant and GDM-pregnant samples respectively (FIG. 2)), as well as a vehicle control (EtOH), its effect was studied on glucose-stimulated insulin secretion (GSIS) and insulin secretion in response to direct depolarization using the secretagogue KCl in an immortalized murine beta cell line (MIN6), as well as primary isolated human and murine islets (FIG. 3A). […] Therefore, high physiologically relevant levels of CMPF impair GSIS.

murine islets = experiment: Total insulin content in murine islets; format: cell-based; conditions: co-treatment with 500 μM NAC, 24 hr
Description: Murine islets were treated for 24 hrs with vehicle control (0 CMPF), 20 uM (20 CMPF), or 200 uM (200 CMPF) CMPF, and assessed for total insulin content and mRNA expression. […] Decreased expression of insulin processing enzymes PCSK1, 2 and CpE (F), (G), (H) indicate that CMPF may also impair post-translational insulin processing. Finally, CMPF causes decreased expression of the beta cell glucose transporter GLUT2, and GCK, the rate-limiting enzyme critical for glucose metabolism (I) and (J), perhaps impairing glucose sensing and metabolism. In all cases n=4, *P<0.05.
In the absence of apoptosis and necrosis, CMPF must be impairing GSIS by causing beta cell dysfunction. First, the effect of CMPF treatment on insulin biosynthesis was investigated to determine if insulin is available to be released upon stimulation. MIN6, murine and human islets were treated with vehicle control, 20 uM and 200 uM CMPF for 4 hrs (MIN6) or 24 hrs (islets), and total insulin content measured. […] Lower total insulin content may be due to either defective insulin processing from proinsulin to mature insulin, or insufficient insulin transcription. To determine the mechanism through which CMPF is reducing total insulin content, quantitative PCR (qPCR) was performed on RNA that was isolated from murine islets treated with either vehicle control or 200 uM CMPF for 24 hrs.

mouse islets = experiment: ROS accumulation in isolated islets (mitoSOX red, CM-H2-DCFDA); format: cell-based; conditions: co-treatment with 500 μM NAC, 24 hr
Description: A) Proinsulin in the media of 24 hr treated islets (n=4/group). B) Mitochondrial membrane potential (MMP) following acute addition of vehicle control or 200 μM of CMPF (N=3/group). C) ROS levels in 4- and 24-hour treated mouse islets with representative images (N=10-15 islets/mouse from 4 mice/group). D) Expression of antioxidant genes Cat and (e) Ucp2 (n=4/group). F) ROS accumulation in 24 hr-treated islets treated with 500 μM NAC (n=10 islets/mouse from 4 mice/group). G) GSIS and (h) total insulin content from 24 hr-treated islets co-treated with 500 μM NAC (n=4/group). Western blots showing (i) Ser9 phosphorylation of GSK3β, (j) Ser473 phosphorylation of AKT (n=3/group). K) Immunofluorescent staining showing nuclear translocation of FOXO1 and (l) PDX1 with CMPF and NAC treatment (n=3-6). Quantification of nuclear percentage of (m) FOXO1 and (n) PDX1 based on immunofluorescent staining with CMPF and NAC treatment. O) Western blots showing protein abundance of PDX1 and FOXO1. Values are mean+/−SEM. Student's t-test (a, c-j, m-o), one-way ANOVA (b). *P<0.05, **P<0.01, ***P<0.001.
The level of superoxide and H2O2 were determined using mitoSOX red and 2′,7′-dichlorodihydro fluorescein diacetate (CM-H2-DCFDA) respectively (Molecular Probes, Invitrogen, Canada) in isolated islets treated with either vehicle control or 200 μM CMPF for 4 or 24 hours, as previously described (Lee et al. 2009). […]

CD1 mouse islets = experiment: GSIS and insulin content of CMPF-treated islets with OAT inhibitors; format: cell-based
Source text: A) Microarray analysis of human islets showing expression of OAT transporters and beta-cell genes (n=3). Validation of OAT expression in human islets by (b) RT-PCR, (c) western blot, and (d) immunofluorescent staining with insulin (n=3-5). Human kidney samples are from the HK2 human proximal tubule cell line. GSIS from murine islets co-treated with OAT inhibitors (e) Probenecid, (f) benzylpenicillin (PCG) and (g) p-aminohippurate (PAH) (n=4/group). h) Total insulin content from murine islets co-treated with CMPF and PCG (n=4). Values mean+/−SEM. Student's t-test (a, e-h). *P<0.05, **P<0.01, ***P<0.001.
To determine if the OAT transporters are responsible for CMPF transport into beta cells, CD1 mouse islets were pre-treated 1 mM Probenecid prior to the addition of CMPF to ensure blockage of the channels and complete exclusion of CMPF from the cells. A dosage of 1 mM Probenecid was selected based on previous evidence that this concentration was sufficient to inhibit anion transport from beta cells without any observed effect on glucose-stimulated insulin secretion (Arkhammar et al. 1989). Islets were pre-treated with 1 mM Probenecid for 3 hours prior to the addition of 200 uM CMPF. After 24 hours cells were assessed by GSIS. Treatment with 200 uM CMPF alone produced a significant decrease in GSIS under both high glucose and KCl-stimulated conditions, consistent with previous findings, while treatment with 1 mM Probenecid for 27 hours had no effect on GSIS compared to vehicle controls. […] Therefore, probenecid inhibits the effect of CMPF. Similar results were obtained using the OAT3-specific inhibitor PCG. Islets were again pre-treated for 3 hours with 300 uM PCG prior to 24-hour 200 uM CMPF treatment (FIG. 14B).
To determine if OATs are responsible for CMPF transport into beta-cells, we utilized inhibitors of OAT function. Probenecid is a non-specific OAT-blocker (Miyamoto et al., 2012). Treatment of islets with 1 mM probenecid for 24 hrs rescued insulin secretion from CMPF-treated islets to control levels (FIG. 19e). To determine which OAT is primarily responsible for CMPF transport into beta-cells, we treated islets with 300 μM of benzylpenicillin (PCG), an OAT3-specific inhibitor, or 50 μM of paminohippurate (PAH), an OAT1-specific inhibitor (Deguchi et al., 2005). Consistent with previous reports that OAT3 is the dominant CMPF transporter (Deguchi et al., 2005), PCG was able to rescue insulin secretion and insulin content from CMPF-treated islets to control levels (FIG. 19f,h). However, treatment with PAH had no effect on secretion (FIG. 19g). Therefore, CMPF is transported into the beta-cell through OAT3, and blockage of this transporter prevents CMPF from impairing GSIS and insulin biosynthesis.

OAT3 = target: T1, OAT3 (Rattus norvegicus, UniProt Q9R1U7); conditions: concentrations of PCG that selectively inhibit OAT3; cited from earlier work
T1 construct: host or cells: kidney (in vivo, per the cited study)
T1 sequence (Q9R1U7 1-536): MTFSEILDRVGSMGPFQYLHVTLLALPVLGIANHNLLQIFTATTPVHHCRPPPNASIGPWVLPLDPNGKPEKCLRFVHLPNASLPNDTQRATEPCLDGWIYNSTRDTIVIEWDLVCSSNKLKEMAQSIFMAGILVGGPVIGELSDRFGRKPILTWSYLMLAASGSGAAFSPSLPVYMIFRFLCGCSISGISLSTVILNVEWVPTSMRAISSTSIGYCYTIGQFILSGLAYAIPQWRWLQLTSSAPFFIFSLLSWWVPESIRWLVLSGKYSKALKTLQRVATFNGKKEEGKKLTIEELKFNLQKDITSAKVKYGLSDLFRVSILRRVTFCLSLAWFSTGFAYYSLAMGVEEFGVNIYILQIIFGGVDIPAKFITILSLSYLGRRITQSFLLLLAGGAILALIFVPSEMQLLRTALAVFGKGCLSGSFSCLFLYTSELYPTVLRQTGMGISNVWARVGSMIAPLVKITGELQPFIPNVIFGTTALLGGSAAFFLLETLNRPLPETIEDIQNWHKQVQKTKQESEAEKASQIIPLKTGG

OAT transporter = conditions: 5 mg/kg CMPF co-administered with 150 mg/kg probenecid; cited from earlier work
mice = experiment: Probenecid IP twice daily for 3 days in mice; format: in vivo
Description: Mice were injected IP with 150 mg/kg probenecid twice daily for 3 days as previously described (Baudoux et al., 2012).

[2] = 150 mg/kg IP twice daily for 3 days

## OO [H2O2, reference compound]
MIN6 cells
  Annexin V and propidium iodide staining (positive control): only observed in the positive control

## CC(=O)N[C@@H](CS)C(=O)O [NAC, N-Acetyl-Cysteine, reference compound]
[1]
  CMPF-induced translocation of FOXO1: prevented
  CMPF-induced translocation of PDX1: prevented
Primary murine islets
  insulin secretion (GSIS) in CMPF-treated islets: rescued
Murine islets
  insulin content in CMPF-treated islets: rescued
Mouse islets
  CMPF-induced increase in ROS production: inhibited

## Nc1ccc(C(=O)NCC(=O)O)cc1 [PAH, p-aminohippurate]
CD1 mouse islets; 50 μM
  insulin secretion of CMPF-treated islets: no effect

## CC1(C)S[C@@H]2[C@H](NC(=O)Cc3ccccc3)C(=O)N2[C@H]1C(=O)O [PCG, benzylpenicillin]
OAT3
  CMPF secretion prevented: 65-75%
CD1 mouse islets; 300 uM
  insulin secretion, inhibitor alone: no significant effect
CD1 mouse islets; 300 uM, 3 hour pre-treatment, then 24 hours with CMPF
  effect of 200 uM CMPF on insulin secretion under high glucose: inhibited the effect of CMPF
CD1 mouse islets; 300 μM, to control levels
  insulin content of CMPF-treated islets: rescue

## CCCN(CCC)S(=O)(=O)c1ccc(C(=O)O)cc1 [probenecid]
OAT transporter
  plasma clearance of CMPF: significantly reduced
CD1 mouse islets; 1 mM, 3 hour pre-treatment, then 24 hours with CMPF
  effect of 200 uM CMPF on high-glucose and KCl-stimulated insulin secretion: completely abolished the effect of CMPF
CD1 mouse islets; 1 mM, 27 hours
  GSIS, inhibitor alone vs vehicle: no effect
mice; [2]
  body weight: No differences
  fasting blood glucose: No differences
mice; 150 mg/kg twice daily
  plasma uric acid concentrations: significantly reduced
mice; on the 4th day
  glucose tolerance (2 g/kg OGTT): no significant difference
